Source: patent US20250026742A1 (SUZHOU ARK BIOPHARMACEUTICAL CO., LTD., priority 2021, published 2025)

Key:
ATR kinase = ATR kinase (Homo sapiens (Human), UniProt Q13535); experiment: ATR enzyme activity inhibition assay (HTRF); type: biochemical; details: p53 substrate, full-length ATR enzyme
Description: The inhibitory ability to ATR kinase for selected compounds was tested by the HTRF (Homogeneous Time-Resolved Fluorescence). In the reaction system, After the substrate p53 is phosphorylated by ATR, the anti-phospho-p53-Eu that serves as an energy donor and specifically binds to the phosphorylation site on p53 is added. Then, the anti-GST-d2 as an energy acceptor that specifically binds to the GST tag carried on p53 is added. […] The IC50 of the sample to be tested can be obtained through graphing and calculation.
Prepare various buffer systems required for the experiment: • 1. […] Prepare detection buffer: Dilute each of the anti-phospho-p53-Eu cryptate (Cisbio, Cat #61P08KA) and anti-GST-d2 (Cisbio, Cat #61GSTDLB) to 1 unit using HTRF detection buffer (Cisbio, Cat #62SDBRDF).
Powdered compounds were dissolved in DMSO to from a stock solution at a concentration of 10 mM. The solution of compounds to be tested at a concentration of […] was performed a 3-fold dilution for 10 concentrations with DMSO. […] 5 μL of ATR was added to each well accordingly. Each well is incubated at 25° C. for 10 min, added with 5 μL of reaction substrate, incubated at 25° C. for 90 min and added with 10 μL of detection solution. […] The inhibition curves of the compounds were made by the four-parameter […] regression equation of XLfit software, and the inhibition rates of the compounds were calculated.

[1] = tested on: human lung cancer NCI-H23 cells; experiment: In vivo pharmacodynamics in the NCI-H23 subcutaneous graft tumor model; design: species or system CB.17/SCID mouse; details: for TGI (%) / Tumor change (%): 14 days after administration; for TGI (%) / Tumor change (%) / Tumor volume (mm^3) day 0 / Tumor volume (mm^3) day 14: 12.5 mg/kg PO QD + Cisplatin 1.5 mg/kg IP QW, NCI-H23 xenograft, CB.17/SCID mice; for body weight of mice after drug administration / decrease in tumor volume compared to the Cisplatin+VX-970 group: combination with Cisplatin; for body weight of mice after drug administration: no difference in body weight loss between the groups (FIG. 1); for decrease in tumor volume compared to the Cisplatin+VX-970 group: p<0.05 in T-test (FIGS. 2 and 3); for Tumor volume (mm^3) day 0: day 0 (start of administration); for Tumor volume (mm^3) day 14: 2 weeks
Description: • 1, cell culture: human lung cancer NCI-H23 cells (ATCC, Item No.: CRL-5800) are performed with an in vitro monolayer culture. […] Trypsin-EDTA was used for conventional digestion and treatment of passaging twice a week. When the cell saturation is […] and the number meets the requirement, the cells are collected, counted and inoculated. • 2, Animals: CB.17/SCID mouse, female, 6-8 weeks old, weighing 18-22 grams. A total of 84 mice are needed, which are provided by Beijing Viton Lihua Laboratory Animal Technology Co., Ltd. or equivalent qualified suppliers. • 3.
• 4. Tumor inoculation: 0.2 mL (10×10^6 cells) of NCI-H23 cells (plus stromal gel, volume ratio 1:1) were subcutaneously inoculated into the right back of each mouse. Mice are grouped for drug administration when the average tumor volume reached about 200 mm^3. Animals were weighed before dosing and tumor volumes were measured. Groups were randomized according to tumor volume (randomized area group design).
• 1 ? The experimental index is to examine whether the tumor growth is inhibited, delayed or cured. […] Calculation of Tumor change (%): Tumor change (%)=(average tumor volume at the end of administration of a treatment group−average tumor volume at the beginning of administration of a treatment group)/average tumor volume at the beginning of administration of a treatment group×100%. Tumor change (%): less than 0, non-growth of the tumor in the mice after the drug administration, and the existence of inhibition. • 6.

Sequence of ATR kinase (Q13535 whole entry): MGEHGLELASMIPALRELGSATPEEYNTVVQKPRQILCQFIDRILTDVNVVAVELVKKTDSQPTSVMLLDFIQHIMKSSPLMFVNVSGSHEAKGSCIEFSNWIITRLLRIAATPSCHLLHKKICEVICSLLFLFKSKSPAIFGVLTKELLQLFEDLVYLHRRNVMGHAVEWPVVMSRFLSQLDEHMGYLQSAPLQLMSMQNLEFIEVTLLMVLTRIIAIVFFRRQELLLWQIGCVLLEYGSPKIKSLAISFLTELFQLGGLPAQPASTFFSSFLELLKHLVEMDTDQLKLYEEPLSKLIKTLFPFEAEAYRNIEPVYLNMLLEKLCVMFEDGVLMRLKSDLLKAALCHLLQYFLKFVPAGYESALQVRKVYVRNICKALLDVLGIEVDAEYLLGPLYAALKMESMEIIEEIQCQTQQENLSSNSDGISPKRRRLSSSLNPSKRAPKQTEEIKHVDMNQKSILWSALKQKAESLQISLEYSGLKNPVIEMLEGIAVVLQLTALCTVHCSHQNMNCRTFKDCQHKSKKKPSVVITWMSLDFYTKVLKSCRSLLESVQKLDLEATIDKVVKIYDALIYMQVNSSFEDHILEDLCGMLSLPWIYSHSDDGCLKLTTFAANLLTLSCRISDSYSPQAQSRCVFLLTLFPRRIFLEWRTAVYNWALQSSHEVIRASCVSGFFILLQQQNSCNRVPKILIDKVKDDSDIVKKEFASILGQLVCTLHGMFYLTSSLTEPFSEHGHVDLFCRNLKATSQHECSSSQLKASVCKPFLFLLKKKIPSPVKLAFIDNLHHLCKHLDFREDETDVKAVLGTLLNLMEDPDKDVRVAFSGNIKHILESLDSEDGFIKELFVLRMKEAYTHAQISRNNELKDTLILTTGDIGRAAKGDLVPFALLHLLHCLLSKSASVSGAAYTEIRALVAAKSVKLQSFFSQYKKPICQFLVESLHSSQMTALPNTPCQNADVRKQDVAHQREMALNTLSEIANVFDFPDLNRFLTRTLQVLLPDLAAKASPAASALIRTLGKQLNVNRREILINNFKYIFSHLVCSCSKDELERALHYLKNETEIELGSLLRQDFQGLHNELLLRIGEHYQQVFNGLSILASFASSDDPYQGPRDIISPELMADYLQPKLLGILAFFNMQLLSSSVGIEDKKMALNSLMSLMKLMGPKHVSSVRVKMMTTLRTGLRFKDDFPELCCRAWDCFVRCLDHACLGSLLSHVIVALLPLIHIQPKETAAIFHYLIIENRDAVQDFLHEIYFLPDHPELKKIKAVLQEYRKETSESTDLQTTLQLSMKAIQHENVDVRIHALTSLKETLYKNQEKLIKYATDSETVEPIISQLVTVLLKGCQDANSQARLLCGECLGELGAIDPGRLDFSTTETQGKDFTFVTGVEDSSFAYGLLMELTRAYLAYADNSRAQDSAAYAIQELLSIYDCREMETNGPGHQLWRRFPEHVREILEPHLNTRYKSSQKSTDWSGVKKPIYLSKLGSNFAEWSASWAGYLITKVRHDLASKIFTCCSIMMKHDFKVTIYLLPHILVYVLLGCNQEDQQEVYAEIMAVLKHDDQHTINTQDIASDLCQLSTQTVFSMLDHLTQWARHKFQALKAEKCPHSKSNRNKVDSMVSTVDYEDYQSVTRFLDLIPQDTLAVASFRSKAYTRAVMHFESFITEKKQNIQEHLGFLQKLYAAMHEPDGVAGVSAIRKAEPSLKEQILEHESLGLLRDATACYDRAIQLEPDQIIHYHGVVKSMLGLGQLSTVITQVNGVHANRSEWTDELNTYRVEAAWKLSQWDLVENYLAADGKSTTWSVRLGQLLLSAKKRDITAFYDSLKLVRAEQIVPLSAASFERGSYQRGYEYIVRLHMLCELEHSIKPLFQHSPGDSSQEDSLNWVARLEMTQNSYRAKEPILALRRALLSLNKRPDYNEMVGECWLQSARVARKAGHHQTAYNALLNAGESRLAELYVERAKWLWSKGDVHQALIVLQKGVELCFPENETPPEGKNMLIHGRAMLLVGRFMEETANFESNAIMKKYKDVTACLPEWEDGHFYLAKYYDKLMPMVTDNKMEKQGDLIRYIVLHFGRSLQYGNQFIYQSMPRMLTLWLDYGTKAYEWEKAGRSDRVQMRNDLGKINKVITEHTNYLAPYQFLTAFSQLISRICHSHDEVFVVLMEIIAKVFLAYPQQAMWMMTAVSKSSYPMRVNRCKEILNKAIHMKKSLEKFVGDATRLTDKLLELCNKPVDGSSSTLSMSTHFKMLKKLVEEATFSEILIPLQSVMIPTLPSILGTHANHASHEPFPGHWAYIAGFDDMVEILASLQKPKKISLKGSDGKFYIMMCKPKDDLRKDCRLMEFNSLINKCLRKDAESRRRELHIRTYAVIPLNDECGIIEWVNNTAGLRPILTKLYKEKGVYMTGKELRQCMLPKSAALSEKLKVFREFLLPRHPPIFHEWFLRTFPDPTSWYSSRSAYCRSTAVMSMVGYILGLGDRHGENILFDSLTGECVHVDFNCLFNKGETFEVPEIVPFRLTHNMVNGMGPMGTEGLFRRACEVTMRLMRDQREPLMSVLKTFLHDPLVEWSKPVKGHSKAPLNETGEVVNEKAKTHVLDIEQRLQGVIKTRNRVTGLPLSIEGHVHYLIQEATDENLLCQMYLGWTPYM
Sequence of ATR kinase (Q8WXE1 whole entry partner): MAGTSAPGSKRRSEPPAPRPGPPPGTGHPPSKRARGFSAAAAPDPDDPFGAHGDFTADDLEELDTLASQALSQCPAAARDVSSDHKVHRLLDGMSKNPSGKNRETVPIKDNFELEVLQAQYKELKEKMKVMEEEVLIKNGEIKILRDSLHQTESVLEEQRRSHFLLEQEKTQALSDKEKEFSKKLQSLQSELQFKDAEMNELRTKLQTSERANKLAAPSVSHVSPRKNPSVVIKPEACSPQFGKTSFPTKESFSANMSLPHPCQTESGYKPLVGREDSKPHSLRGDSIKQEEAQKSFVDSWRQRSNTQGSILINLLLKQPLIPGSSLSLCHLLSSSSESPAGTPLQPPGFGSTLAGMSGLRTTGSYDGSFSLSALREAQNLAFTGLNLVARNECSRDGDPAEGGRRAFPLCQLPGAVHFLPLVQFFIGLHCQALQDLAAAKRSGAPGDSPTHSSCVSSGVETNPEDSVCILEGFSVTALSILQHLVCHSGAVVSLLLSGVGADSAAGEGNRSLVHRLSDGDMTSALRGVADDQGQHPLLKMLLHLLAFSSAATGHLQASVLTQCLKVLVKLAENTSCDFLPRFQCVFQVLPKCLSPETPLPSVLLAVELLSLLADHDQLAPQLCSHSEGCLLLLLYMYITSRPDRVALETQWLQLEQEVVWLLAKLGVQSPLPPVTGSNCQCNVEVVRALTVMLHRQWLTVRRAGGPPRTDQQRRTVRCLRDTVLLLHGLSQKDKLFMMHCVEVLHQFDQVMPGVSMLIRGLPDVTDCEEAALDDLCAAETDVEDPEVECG

## (R)-5-(5-amino-6-(5-(4-((methylamino)methylene)phenyl)-1,3,4-oxadiazol-2-yl)pyrazin-2-yl)-3-fluoro-2,2-dimethyl-2,3-dihydrobenzo[b]thiophene 1,1-dioxide or (S)-5-(5-amino-6-(5-(4-((methylamino)methylene)phenyl)-1,3,4-oxadiazol-2-yl)pyrazin-2-yl)-3-fluoro-2,2-dimethyl-2,3-dihydrobenzo[b]thiophene 1,1-dioxide [Example 33-1 or 33-2]
ATR kinase
  IC50: 0.83 nM
[1]
  TGI (%): 245%
  Tumor change (%): −66%
  body weight of mice after drug administration: decrease in body weight
  decrease in tumor volume compared to the Cisplatin+VX-970 group: more obvious decrease in tumor volume
  Tumor volume (mm^3) day 0: 267 mm^3
  Tumor volume (mm^3) day 14: 92 mm^3

## CNCc1ccc(-c2cc(-c3nc(-c4ccc(S(=O)(=O)C(C)C)cc4)cnc3N)on2)cc1 [VX-970, Berzosertib, reference compound]
[1]
  TGI (%): 128%
  Tumor change (%): −12%
  body weight of mice after drug administration: decrease in body weight
  Tumor volume (mm^3) day 0: 266 mm^3
  Tumor volume (mm^3) day 14: 231 mm^3
[1]; listed as VX970
  Tumor change (%): −13%

## (R)-5-(5-amino-6-(3-(4-((methylamino)methyl)phenyl)isoxazol-5-yl-4-deuterium)pyrazin-2-yl)-3-fluoro-2,2-dimethyl-2,3-dihydrobenzo[b]thiophene 1,1-dioxide or (S)-5-(5-amino-6-(3-(4-((methylamino)methyl)phenyl)isoxazol-5-yl-4-deuterium)pyrazin-2-yl)-3-fluoro-2,2-dimethyl-2,3-dihydrobenzo[b]thiophene 1,1-dioxide [Example 38-1 or 38-2]
ATR kinase
  IC50: 0.75 nM
[1]
  TGI (%): 159%
  Tumor change (%): −29%
  body weight of mice after drug administration: decrease in body weight
  decrease in tumor volume compared to the Cisplatin+VX-970 group: more obvious decrease in tumor volume
  Tumor volume (mm^3) day 0: 252 mm^3
  Tumor volume (mm^3) day 14: 180 mm^3
